Measured values: patent US20110229521A1, “NUTRITIONAL SUPPORT OF THE IMMUNE SYSTEM DURING ANTI-CANCER TREATMENT” (priority 2008, published 2011)

What was measured:
[1] = Body weight, haematological evaluation and flow cytometry of tumor-bearing mice on supplemented diets with chemotherapy (Example 2); assay type: in vivo, C57BL/6 (H-2b) mice; conditions: for Global lymphocyte population: following chemotherapy
Procedure: (§1) Mice. […] The animals were distributed into 7 different group diets. There was a control group that received the diet AIN 93 for adult rodents (maintenance). […] Control animals without chemotherapeutic treatment were run in parallel for all tested diets. Body weight was assessed every two days. Blood samples were obtained at day 2, 4 and 10 after the chemo-treatment and at sacrifice (14 or 28 days). An autopsy was performed and tumor mass was assessed.
Haematological evaluation.
Flow cytometric analysis.

[2] = tested on: γδ T cells; conditions: acid hydrolysed, diluted in media; peripheral blood mononuclear cells; cited from earlier work
[3] = tested on: MCA-OVA tumor cells; experiment: Tumor growth evaluation by caliper, supplemented diets with or without chemotherapy (Example 2); assay type: in vivo, C57BL/6 (H-2b) mice
Procedure: as §1
(§2) Cancer Cell Lines. Methylcholanthrene (MCA) induced sarcoma cell line expressing the exogenous antigen ovalbumin (OVA) was grown in DMEM or RPMI 1640 supplemented with 2 mM L-glutamine, 10 mM HEPES, 20 μM 2-mercaptoethanol, 150 U/mL streptomycin, 200 U/mL penicillin, and 10% heat-inactivated FBS. 1×10 ^6 tumor cells were injected in the flank of the mice 6 days prior to the chemotherapy.
Tumor growth evaluation. Growth of tumors was monitored every 2 d by using calipers, and tumor volume was calculated by using the formula length×width×width×0.52 mm^3.

[4] = Body weight, haematological evaluation and flow cytometry of tumor-bearing mice after chemotherapy (Example 1)
Procedure: Mice. Inbred eight-week-old C57BL/6 (H-2b) mice were used in the experiments. Mice were inoculated subcutaneously (s.c.) on the left flank with 1×10 ^6 tumor cells, and tumor growth was monitored every 2 days by caliper measurement. 6 days after the tumor inoculation the animals were treated either with oxaliplatin or doxorubicin. Tumor growth was monitored every two days after the chemotherapeutic treatment and they were sacrificed after two weeks of tumor implantation. Some experiments were carried out until 28 days post-chemo to better assess tumor growth.
Body weight was assessed every two days until sacrifice.
Blood samples were obtained at day 2 and 4 after the chemo-treatment, at day 10 and at sacrifice (14 or 28 days). An autopsy was performed and tumoral mass was assessed.
Haematological evaluation. Red blood cell enumeration, hemoglobin and hematocrit were measured at 2, 4, 10, 14 and 28 days.
White blood cell counts and differential leukocyte formulation were examined at the same time points. Blood samples were used in addition to determine immune cell populations.
Flow cytometric analysis. Cell subset analysis of the CD11c^+, CD11b^+Gr-1^+ and CD11b^+Gr-1^−, CD14^+, CD19^+, CD16^+, CD56^+, CD3^+, CD8^+, CD4^+ was performed. The battery of antibodies used permitted the evaluation of: B and T cell subsets NK, NKT cells, macrophages, dendritic cells, granulocytes.

[5] = tested on: Methylcholanthrene (MCA) induced sarcoma cell line expressing the exogenous antigen for ovalbumin (OVA); experiment: Tumor growth evaluation by caliper after chemotherapy (Example 1); assay type: in vivo, C57BL/6 (H-2b) mice
Procedure: as §2, with “antigen for” for “antigen”, “were” for “was”, “1×10^6” for “1×10 ^6”
Growth of tumors was monitored every 2 d by using calipers, and tumor volume was calculated by using the formula length×width×width×0.52 mm^3.

In the case of `NC(=O)NCCC[C@H](N)C(=O)O` [citrulline, L-citrulline], the Global lymphocyte population ([1]; supplemented diet) is reported as “less depressed following chemotherapy”.

For `CCNC(=O)CC[C@H](N)C(=O)O` [L-theanine], the “expansion of γδ T cells” value [2] is listed as 15 fold.

In the case of `N=C(N)NCCC[C@H](N)C(=O)O` [arginine, L-arginine], the “loss of CD3+ cells” value ([1]; after chemotherapy, supplemented diet) is reported as “partially modulated”, the “immune cell population / concentration” value ([1]; second phase (tumor-induced toxicity)) is reported as “increase immune cell concentration” and the “fall of erythrocytes after chemotherapy” value ([1]; supplemented diet, days 6 to 10 post-chemo, FIG. 3) is reported as “prevented the marked fall of erythrocytes”. The tumor size ([3]; combination with the chemotherapy treatment versus chemotherapy alone, FIG. 4) was “further reduced the tumor size” and the “progression of the implanted tumor” value ([3]; supplemented diet compared to other groups) was “delayed progression”.

In the case of `NC(=O)CC[C@H](N)C(=O)O` [glutamine], the Global lymphocyte population ([1]; supplemented diet) is reported as “less depressed following chemotherapy”.

For `O=C1[O][Pt]2([NH][C@@H]3CCCC[C@H]3[NH]2)[O]C1=O` [oxaliplatin], the “white blood cell counts” value [4] was “higher that the baseline counts”, the “tumor growth rate versus control (no chemotherapy)” value ([5]; treatment group oxa-10, FIG. 2, divergence at day 14) was “slower rate than the control” and the “tumor growth rate versus control (no chemotherapy)” value ([5]; treatment group oxa-12.5, FIG. 2, divergence at day 14) was “slower rate than the control”.
